From patent US8629103B2, “Treatment of non-proliferative cystic disease of the breast” (New York University, priority 2010, dated 2014)
Entries after “also recorded” stand apart in the source; their conditions may differ. Starred links: 1 amine or outer side, 2 acyl side, 3 side chain; linkers in the order of their positions; H or OH if unused. Non-standard residues stand in square brackets, D forms with d. Residues, ends and D or L forms follow the SMILES beside them. Groups on a side chain read outwards from the residue. *: point of attachment. Ethylenediamine = C(CN[*:2])N[*:1]; Hyp = O=C(O)[C@@H]1C[C@@H](O)CN1; Phg = N[C@H](C(=O)O)c1ccccc1; CO = O=C([*:1])[*:2]; Bn = c1ccc(C*)cc1

Columns and labels:
[1] = test system: IGF-I receptor, ERK, and AKT; test: Western blots of phosphorylation of IGF-I receptor, ERK and AKT in treated Brca1LoxP/Brca1LoxP mice; type: in vivo; conditions: 4 month old Brca1LoxP/Brca1LoxP females; 7 days; PQ401 100 mg/kg thrice a week intraperitoneal; pasireotide 10 μg/kg/h by Alzet pump
Experimental: Western blots showing that the increased phosphorylation of IGF-I receptor and its downstream mediators ERK and AKT in Brca1^LoxP/Brca1^LoxP females is reduced by treatment with 100 mg/kg PQ401 thrice a week and 10 μg/kg/h pasireotide. The two WT samples are from age-matched, untreated C57Bl/6 control mice. PQ401 was administered by intraperitoneal injections, pasireotide by Alzet pump Model 2001. For both drugs, the course of treatment was 7 days.
FIG. 6 depicts Western blots showing the effects of IGF-I inhibition on the phosphorylation of IGF-I receptor, ERK, and AKT in 4 month old Brca1^LoxP/Brca1^LoxP. The increased phosphorylation of IGF-I receptor and its downstream mediators ERK and AKT in Brca1^LoxP/Brca1^LoxP females is reduced by treatment with 100 mg/kg PQ401 thrice a week and 10 μg/kg/h pasireotide. The two WT samples are from age-matched, untreated C57Bl/6 control mice. PQ401 was administered by intraperitoneal injections, pasireotide by Alzet pump Model 2001. For both drugs, the course of treatment was 7 days.

[2] = test system: Brca1^LoxP/Brca1^LoxP mice; test: Mammary gland phenotype (whole mounts, hematoxylin-eosin sections, duct width, HANs) of treated Brca1LoxP/Brca1LoxP mice; type: in vivo; conditions: for mammary gland phenotype (whole mounts, histology): 7 days; for width of mammary gland ducts / ductal dilatation: 10 μg/kg/h for 7 days by Alzet pump, vs vehicle (water)
Experimental: Representative whole mounts of mammary glands from 4 month old Brca1^LoxP/Brca1^LoxP females treated with water (upper photomicrographs) or 10 μg/kg/h pasireotide (lower photomicrographs) for 7 days. Both water and pasireotide were administered by Alzet pump Model 2001.
FIG. 8 depicts effects of pasireotide on the mammary gland phenotype of Brca1^LoxP/Brca1^LoxP mice. Representative hematoxylin-eosin sections of mammary glands from 4 month old Brca1^LoxP/Brca1^LoxP females treated with water (left) or pasireotide (center and right) for 7 days. Both water and pasireotide were administered by Alzet pump Model 2001. The dosage of pasireotide was 10 μg/kg/h.
FIG. 9 depicts effects of pasireotide on duct width of mammary glands of Brca1^LoxP/Brca1^LoxP mice. […] Both water and pasireotide were administered by Alzet pump Model 2001. Six animals were treated with pasireotide and five animals were treated with water (control). […]
The present inventor has made the surprising discovery that mice comprising loxP sites flanking exon 11 of the BRCA1 gene (formally known as Brca1^loxP/loxP, but also referred to herein as LoxP mice) display profoundly abnormal mammary gland development at an early age. LoxP mice were acquired from the National Institutes of Health Mouse Repository. The strain is Stock Brcal^tm2Cxd and the Strain code is 01XC8. Mice were maintained in accordance with the standards established by the Association for Assessment and Accreditation of Laboratory Animal Care (AAALAC) (New York University).
Representative whole mounts of mammary glands from 4 month old Brca1^LoxP/Brca1^LoxP females treated with water (upper photomicrographs) or 10 μg/kg/h pasireotide (lower photomicrographs) for 7 days are shown. Both water and pasireotide were administered by Alzet pump Model 2001. […] These findings were confirmed on a histological level as shown in FIG. 8 which depicts representative hematoxylin-eosin sections of mammary glands from 4 month old Brca1^LoxP/Brca1^LoxP females treated with water (left) or pasireotide (center and right) for 7 days. Both water and pasireotide (10 μg/kg/h) were administered by Alzet pump Model 2001. […] Both water and pasireotide were administered by Alzet pump Model 2001. […]

[3] = test system: Ki67-positive epithelial cells in the mammary glands; test: Ki67 immunohistochemistry of mammary epithelial cells in treated Brca1LoxP/Brca1LoxP mice; type: in vivo; conditions: 4 month old Brca1LoxP/Brca1LoxP mice; 7 days of treatment; vs vehicle
From the text: The frequency of Ki67-positive mammary epithelial cells in C57Bl/6 controls treated with water (WT, water) is also presented. *, p<0.05 as compared with WT, water; **, p<0.01 as compared with WT, water; a, p<0.05 as compared with LoxP, water; b, p<0.01 as compared with LoxP, water.
The frequency of Ki67-positive mammary epithelial cells in C57Bl/6 controls treated with water (WT, water) is also presented. *, p<0.05 as compared with WT, water; **, p<0.01 as compared with WT, water; a, p<0.05 as compared with LoxP, water; b, p<0.01 as compared with LoxP, water. […] This finding is significant because Ki67 is a cancer antigen that is found in growing, dividing cells, but is absent in the resting phase of cell growth. Accordingly, Ki67 is viewed as a good tumor cell marker.

[4] = molecular target: IGF-I receptor (Homo sapiens, UniProt P08069); conditions: cited from earlier work
Chain of IGF-I receptor (P08069 31-1367, species assumed): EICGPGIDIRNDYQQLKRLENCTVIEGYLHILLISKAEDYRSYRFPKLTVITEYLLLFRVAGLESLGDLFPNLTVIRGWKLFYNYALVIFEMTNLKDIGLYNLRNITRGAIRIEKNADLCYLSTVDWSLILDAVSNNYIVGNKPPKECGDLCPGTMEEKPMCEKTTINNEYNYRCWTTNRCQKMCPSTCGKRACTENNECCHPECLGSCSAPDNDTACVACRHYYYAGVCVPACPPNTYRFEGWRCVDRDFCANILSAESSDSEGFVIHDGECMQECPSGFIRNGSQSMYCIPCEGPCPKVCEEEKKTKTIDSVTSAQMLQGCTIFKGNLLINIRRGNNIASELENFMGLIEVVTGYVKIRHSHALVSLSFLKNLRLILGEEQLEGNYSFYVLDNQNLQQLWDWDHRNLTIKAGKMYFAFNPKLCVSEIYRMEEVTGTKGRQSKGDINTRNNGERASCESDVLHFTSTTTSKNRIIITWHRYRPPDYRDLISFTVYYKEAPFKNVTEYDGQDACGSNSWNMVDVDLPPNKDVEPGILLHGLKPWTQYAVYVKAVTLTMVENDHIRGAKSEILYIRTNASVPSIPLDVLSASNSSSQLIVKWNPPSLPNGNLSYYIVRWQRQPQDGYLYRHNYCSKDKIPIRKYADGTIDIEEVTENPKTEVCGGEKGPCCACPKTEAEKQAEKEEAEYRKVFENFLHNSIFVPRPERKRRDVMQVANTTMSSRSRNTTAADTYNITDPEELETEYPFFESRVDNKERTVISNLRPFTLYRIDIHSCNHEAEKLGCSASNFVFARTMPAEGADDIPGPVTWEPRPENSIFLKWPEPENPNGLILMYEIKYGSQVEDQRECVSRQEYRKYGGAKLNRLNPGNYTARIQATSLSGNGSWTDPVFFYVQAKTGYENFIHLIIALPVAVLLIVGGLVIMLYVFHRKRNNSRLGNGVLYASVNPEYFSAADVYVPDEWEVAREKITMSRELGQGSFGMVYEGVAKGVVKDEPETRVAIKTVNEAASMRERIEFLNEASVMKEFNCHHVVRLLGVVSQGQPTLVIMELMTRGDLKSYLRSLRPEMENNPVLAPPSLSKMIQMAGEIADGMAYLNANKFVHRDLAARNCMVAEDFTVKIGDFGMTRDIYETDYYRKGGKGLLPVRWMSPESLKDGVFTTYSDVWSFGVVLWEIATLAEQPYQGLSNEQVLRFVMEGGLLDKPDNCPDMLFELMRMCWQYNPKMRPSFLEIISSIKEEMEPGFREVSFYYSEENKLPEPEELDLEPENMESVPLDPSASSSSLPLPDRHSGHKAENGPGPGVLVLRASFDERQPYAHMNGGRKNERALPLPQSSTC

[5] = test system: somatostatin receptors; conditions: cited from earlier work; for somatostatin receptors bound: of the 5 somatostatin receptors
[6] = test system: mammary development in rats; conditions: Ruan et al. 2006; cited from earlier work
[7] = test system: growth hormone and estradiol induced mammary hyperplasia; conditions: Kleinberg et al. 2011; cited from earlier work
[8] = test system: breast cancer; conditions: women with certain hyperplastic lesions of the breast; clinical evidence; cited from earlier work
[9] = 4 month old Brca1LoxP/Brca1LoxP females, pasireotide 10 μg/kg/h Alzet pump vs water, PQ401 intraperitoneal vs 8% ethanol/Tween 80 in PBS

## COc1ccc(Cl)cc1NC(=O)Nc1cc(C)nc2ccccc12 [PQ401]
[1]
  phosphorylation of IGF-I receptor and its downstream mediators ERK and AKT: reduced
[2]; [9]
  mammary gland phenotype (whole mounts, histology): dramatically reduces
[3]
  Ki67-positive epithelial cells in the mammary glands (cell proliferation): reduces; also recorded: significantly reduced
[4]
  IGF-I receptor inhibition: very potent and specific

## NCCCC[C@@H]1NC(=O)[C@@H](Cc2c[nH]c3ccccc23)NC(=O)[C@H](c2ccccc2)NC(=O)[C@@H]2C[C@@H](OC(=O)NCCN)CN2C(=O)[C@H](Cc2ccccc2)NC(=O)[C@H](Cc2ccc(OCc3ccccc3)cc2)NC1=O [pasireotide] (cyclo([Hyp]([CO-Ethylenediamine])[Phg][dW]KY(Bn)F))
[1]
  phosphorylation of IGF-I receptor and its downstream mediators ERK and AKT: reduced
[2]; 4 month old Brca1LoxP/Brca1LoxP females
  width of mammary gland ducts / ductal dilatation: effective in decreasing
[2]; 4 month old Brca1LoxP/Brca1LoxP females, listed as SOM230
  width of mammary gland ducts / ductal dilatation: significant effect on inhibiting; also recorded: significantly reduced
[2]; [9]
  mammary gland phenotype (whole mounts, histology): dramatically reduces
[2]; LoxP mice at 4 months of age treated with SOM230
  formation of HANs (hyperplastic alveolar nodules): preventing
[2]; affected LoxP animals, SOM230 or control vehicle for 1 week
  number of ducts: unchanged
[3]
  Ki67-positive epithelial cells in the mammary glands (cell proliferation): reduces; also recorded: significantly reduced
[5]
  affinity for SSTR3 and/or SSTR5 receptors: has affinity
  somatostatin receptors bound: 4 of the 5
[6]
  IRS-1 phosphorylation in the mammary gland (IGF-I action): reduction
  growth hormone secretion from the pituitary: inhibitory effect
  mammary development: prevents
[7]
  efficacy compared with tamoxifen in preventing growth hormone and estradiol-induced mammary hyperplasia: at least as effective as tamoxifen
  growth hormone and estradiol induced mammary hyperplasia: prevents

## CC/C(=C(\c1ccccc1)c1ccc(OCCN(C)C)cc1)c1ccccc1 [tamoxifen]
[7]
  growth hormone and estradiol induced mammary hyperplasia: prevent
[8]
  prevention of the development of cancer: about 50%

## somatostatin-14 [SS-14]
[2]; 9 month old Brca1LoxP/Brca1LoxP females, Alzet pump, vs water
  mammary gland phenotype (whole mounts, histology): reduces
[2]; nine month old LoxP animals treated for a week
  number of HANs: impressive reduction
[5]
  somatostatin receptors bound: all
